This note sets out measurements from ChEMBL document CHEMBL3817752, “Antimycobacterial activity of new N(1)-[1-[1-aryl-3-[4-(1H-imidazol-1-yl)phenyl]-3-oxo]propyl]-pyridine-2-carboxamidrazone derivatives” (Bioorg Med Chem Lett, 2016).

Usually MIC stands for the lowest concentration found to suppress growth. Broadly, the CC50 is the concentration giving 50% cytotoxicity.

Converted amounts (≈) assume the structure as drawn. The source made the active and inactive calls. No cut-off for these calls is given here.

Series [1] deals with Candida albicans. Briefly: Antimicrobial activity against Candida albicans 685 clinical isolate at 5 ug per disk after 18 to 24 hrs by agar diffusion assay. It counts as functional. The note with it: read-out: DIZ. For orientation: A growth-free zone around the sample is the usual read-out of agar diffusion tests.
For series [2], the system named is Staphylococcus aureus. Briefly: Antimicrobial activity against Staphylococcus aureus ATCC 25923 at 30 ug per disk after 18 to 24 hrs by agar diffusion assay. It counts as functional. Conditions: read-out: DIZ.
Series [3] deals with Escherichia coli. Briefly: Antimicrobial activity against Escherichia coli ATCC 25922 at 30 ug per disk after 18 to 24 hrs by agar diffusion assay. It counts as functional. The note with it: read-out: DIZ.
A further series concerns Mycobacterium gordonae. Briefly: Antimycobacterial activity against Mycobacterium gordonae NCTC 10267 after 7 days by resazurin microtiter assay. Type of series: functional. The note with it: NCTC 10267, 168 h. (Alamar Blue is a resazurin reagent that responds to reducing activity.)
Series [4] relates to Mycobacterium scrofulaceum. Briefly: Antimycobacterial activity against Mycobacterium scrofulaceum NCTC 10803 after 7 days by resazurin microtiter assay. Type of series: functional. Conditions: 168 h.
The next series has as its system Mycobacterium kansasii. Briefly: Antimycobacterial activity against Mycobacterium kansasii NCTC 10268 after 7 days by resazurin microtiter assay. Type of series: functional. Conditions: NCTC 10268, 168 h.
The subject of another series is Mycobacterium marinum. Briefly: Antimycobacterial activity against Mycobacterium marinum CIP 6423 after 7 days by resazurin microtiter assay. It counts as functional. Conditions: CIP 6423, 168 h.
A further series relates to Mycobacterium avium. Briefly: Antimycobacterial activity against Mycobacterium avium NCTC 08559 after 7 days by resazurin microtiter assay. The note with it: NCTC 08559, 168 h. It counts as functional.
Series [5] in a line: Cytotoxicity against African green monkey Vero cells after 72 hrs by MTT assay. Type of series: cell-based. The note with it: chlorocebus sabaeus. In general terms: Tetrazolium dyes change colour on reduction, which living cells bring about.
Series [6] is described as follows: Selectivity index, ratio of CC50 for African green monkey Vero cells to MIC for Mycobacterium tuberculosis H37Ra […]. It counts as toxicity, cell-based. Conditions: read-out: Selectivity Index.
Series [7] deals with T1, Sterol 14alpha-demethylase (Mycobacterium tuberculosis) (UniProt P9WPP9).
T1 sequence (whole entry): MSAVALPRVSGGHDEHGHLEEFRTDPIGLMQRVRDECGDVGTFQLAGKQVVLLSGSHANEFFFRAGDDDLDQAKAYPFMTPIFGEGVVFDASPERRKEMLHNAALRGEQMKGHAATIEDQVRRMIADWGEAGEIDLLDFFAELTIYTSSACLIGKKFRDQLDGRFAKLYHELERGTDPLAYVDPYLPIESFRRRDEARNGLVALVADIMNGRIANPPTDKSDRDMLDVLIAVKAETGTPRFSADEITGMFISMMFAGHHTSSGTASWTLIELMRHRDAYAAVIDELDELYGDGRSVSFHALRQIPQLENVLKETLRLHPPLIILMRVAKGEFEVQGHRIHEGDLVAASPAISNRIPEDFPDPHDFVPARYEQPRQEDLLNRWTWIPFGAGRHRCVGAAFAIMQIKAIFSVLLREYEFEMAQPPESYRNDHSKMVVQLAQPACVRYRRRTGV
Briefly: Binding affinity to N-terminal His-tagged Mycobacterium tuberculosis H37Rv ATCC 25618 CYP51 expressed in Escherichia coli Rosetta (DE3) by spectrophotometric analysis.

Series [8] deals with Staphylococcus aureus. Briefly: Antimicrobial activity against Staphylococcus aureus ATCC 25923 at 20 ug per disk after 18 to 24 hrs by agar diffusion assay. Type of series: functional. Conditions: read-out: DIZ.
Series [9] has as its system Escherichia coli. Briefly: Antimicrobial activity against Escherichia coli ATCC 25922 at 20 ug per disk after 18 to 24 hrs by agar diffusion assay. Type of series: functional. The note with it: read-out: DIZ.
Series [10] concerns Candida albicans. Briefly: Antimicrobial activity against Candida albicans 685 clinical isolate at 20 ug per disk after 18 to 24 hrs by agar diffusion assay. Conditions: read-out: DIZ. Type of series: functional.
In series [11] the test system is Mycobacterium tuberculosis. Briefly: Antimycobacterial activity against Mycobacterium tuberculosis H37Ra […] after 7 days by resazurin microtiter assay. It counts as functional. The note with it: 168 h.
For series [12], the system named is Mycobacterium intracellulare. Briefly: Antimycobacterial activity against Mycobacterium intracellulare NCTC 10425 after 7 days by resazurin microtiter assay. It counts as functional. Conditions: NCTC 10425, 168 h.

In the case of `C[C@@H]1[C@H](O)[C@@H](C)/C=C/C=C/C=C/C=C/C=C/C=C/C=C/[C@H](O[C@@H]2O[C@H](C)[C@@H](O)[C@H](N)[C@@H]2O)C[C@@H]2O[C@](O)(C[C@@H](O)C[C@@H](O)[C@H](O)CC[C@@H](O)C[C@@H](O)CC(=O)O[C@H]1C)C[C@H](O)[C@H]2C(=O)O` [AMPHOTERICIN B], the zone of inhibition at 5 µg/disc in the series with Candida albicans [1] came to 16 mm.

On to `CC(=O)OCC1=C(C(=O)O)N2C(=O)[C@@H](NC(=O)Cc3cccs3)[C@H]2SC1` [CEPHALOTHIN], for which the zone of inhibition at 30 µg/disc in the series on Staphylococcus aureus [2] was determined as 31 mm; in the series on Escherichia coli [3] it was 11 mm.

For the molecule `N/C(=N/NC(CC(=O)c1ccc(-n2ccnc2)cc1)c1ccc(Br)cc1)c1ccccn1` (stereo not given), the MIC in the series on Mycobacterium gordonae stood at 2 µM (≈ 0.979 µg/mL); in [4] it was 16.3 µM (≈ 7.98 µg/mL); with Mycobacterium kansasii, 4.1 µM (≈ 2.01 µg/mL); against Mycobacterium marinum it was 8.2 µM (≈ 4.01 µg/mL); against Mycobacterium avium, 131 µM (≈ 64.1 µg/mL); in series [11], 16.3 µM (≈ 7.98 µg/mL). The minimum inhibitory concentration (MIC) in [12] amounted to 131 µM (≈ 64.1 µg/mL). For the same molecule, the CC50 at 72 h in series [5] came out at 298 µM. The selectivity ratio in series [6] worked out at 18. Also, the result in [7] was inactive. The values for the zone of inhibition at 20 µg/disc in the series on Staphylococcus aureus [8], in the series with Escherichia coli [9] and in the series on Candida albicans [10] were 20 mm, 6 mm and 8 mm, respectively.

Turning to `N/C(=N/NC(CC(=O)c1ccc(-n2ccnc2)cc1)c1cccc(Br)c1)c1ccccn1` (stereo not given), the minimum inhibitory concentration (MIC) amounted to 2 µM (≈ 0.979 µg/mL) in the series on Mycobacterium gordonae; 32.7 µM (≈ 16 µg/mL) in series [4]; 16.3 µM (≈ 7.98 µg/mL) in the series with Mycobacterium kansasii; 16.3 µM (≈ 7.98 µg/mL) against Mycobacterium marinum; 131 µM (≈ 64.1 µg/mL) in the series with Mycobacterium avium; 16.3 µM (≈ 7.98 µg/mL) in series [11]. Besides, the minimal inhibitory concentration (MIC) in series [12] came out at 131 µM (≈ 64.1 µg/mL). In series [5], this molecule came in with a CC50 at 72 h of 51.3 µM. In addition, in [7], the outcome was inactive. The zone of inhibition at 20 µg/disc with Staphylococcus aureus [8] is 19 mm; with Escherichia coli [9], 8 mm; in the series with Candida albicans [10] it was 13 mm.

For `N/C(=N/NC(CC(=O)c1ccc(-n2ccnc2)cc1)c1ccc(Cl)cc1Cl)c1ccccn1` (stereo not given), the minimum inhibitory concentration (MIC) with Mycobacterium gordonae worked out at 9 µM (≈ 4.31 µg/mL); in series [4], 16.7 µM (≈ 8.01 µg/mL); with Mycobacterium kansasii it was 4.2 µM (≈ 2.01 µg/mL); against Mycobacterium marinum it was 33.3 µM (≈ 16 µg/mL); with Mycobacterium avium it was 33.3 µM (≈ 16 µg/mL); in series [11] it was 9 µM (≈ 4.31 µg/mL). Also, the minimum inhibitory concentration (MIC) in [12] was determined as 33.3 µM (≈ 16 µg/mL). Further, in series [5], the cytotoxic concentration (CC50) at 72 h was found to be 27.8 µM. In series [7], the outcome was inactive. The zone of inhibition at 20 µg/disc was 17 mm in the series with Staphylococcus aureus [8], 6 mm in the series with Escherichia coli [9] and 8 mm with Candida albicans [10].

In the case of `N/C(=N/NC(CC(=O)c1ccc(-n2ccnc2)cc1)c1ccccc1Br)c1ccccn1` (stereo not given), the minimum inhibitory concentration (MIC) with Mycobacterium gordonae is 8.2 µM (≈ 4.01 µg/mL); in series [4] it was 16.3 µM (≈ 7.98 µg/mL); with Mycobacterium kansasii, 16.3 µM (≈ 7.98 µg/mL); with Mycobacterium marinum it was 16.3 µM (≈ 7.98 µg/mL); in the series on Mycobacterium avium, 65.4 µM (≈ 32 µg/mL); in series [11], 32.7 µM (≈ 16 µg/mL). Further, inhibition of growth in series [12] (MIC) required 131 µM (≈ 64.1 µg/mL). The same molecule yielded a 50% cytotoxic concentration (CC50) at 72 h in [5] of 29 µM. In series [7], the result was inactive. Also, the zone of inhibition at 20 µg/disc in the series with Staphylococcus aureus [8] amounted to 19 mm; in the series on Escherichia coli [9], 5 mm; in the series with Candida albicans [10], 8 mm.

In the case of `N/C(=N/NC(CC(=O)c1ccc(-n2ccnc2)cc1)c1ccccc1)c1ccccn1` (stereo not given), the MIC is 9.7 µM (≈ 3.98 µg/mL) against Mycobacterium gordonae; 19.5 µM (≈ 8 µg/mL) in series [4]; 19.5 µM (≈ 8 µg/mL) in the series on Mycobacterium kansasii; 19.5 µM (≈ 8 µg/mL) in the series with Mycobacterium marinum; 78 µM (≈ 32 µg/mL) against Mycobacterium avium; 19.5 µM (≈ 8 µg/mL) in [11]. In addition, 78 µM (≈ 32 µg/mL) was the least that counted as inhibitory in [12] (MIC). The midpoint of cytotoxicity in series [5], the CC50 at 72 h, lay at 63.5 µM. Further, the result in series [7] was inactive. The zone of inhibition at 20 µg/disc is 14 mm in the series with Staphylococcus aureus [8], 7 mm in the series on Escherichia coli [9] and 5 mm in the series with Candida albicans [10].

`N/C(=N/NC(CC(=O)c1ccc(-n2ccnc2)cc1)c1ccccc1Cl)c1ccccn1` (stereo not given): the minimal inhibitory concentration (MIC) was found to be 18 µM (≈ 8.01 µg/mL) in the series on Mycobacterium gordonae; 18 µM (≈ 8.01 µg/mL) in [4]; 18 µM (≈ 8.01 µg/mL) against Mycobacterium kansasii; 18 µM (≈ 8.01 µg/mL) against Mycobacterium marinum; 72 µM (≈ 32 µg/mL) in the series on Mycobacterium avium; 36 µM (≈ 16 µg/mL) in series [11]. In addition, the lowest concentration to inhibit growth in series [12] (MIC) was 144 µM (≈ 64.1 µg/mL). Moreover, in [5], the 50% cytotoxic concentration (CC50) at 72 h came to 53.2 µM. The outcome in series [7] was inactive. The figures for the zone of inhibition at 20 µg/disc in the series on Staphylococcus aureus [8], with Escherichia coli [9] and in the series on Candida albicans [10] were 20 mm, 6 mm and 7 mm, respectively.

For the molecule `N/C(=N/NC(CC(=O)c1ccc(-n2ccnc2)cc1)c1ccccc1F)c1ccccn1` (stereo not given), the minimum inhibitory concentration (MIC) was 4.7 µM (≈ 2.01 µg/mL) with Mycobacterium gordonae; 18.7 µM (≈ 8.01 µg/mL) in [4]; 18.7 µM (≈ 8.01 µg/mL) against Mycobacterium kansasii; 18.7 µM (≈ 8.01 µg/mL) with Mycobacterium marinum; 74.7 µM (≈ 32 µg/mL) against Mycobacterium avium; 17.6 µM (≈ 7.54 µg/mL) in [11]. Moreover, the MIC in series [12] stood at 74.7 µM (≈ 32 µg/mL). Further, it took 62.1 µM to reach half-maximal cytotoxicity in series [5] (CC50 at 72 h). Further, in [7], the outcome was inactive. Moreover, the zone of inhibition at 20 µg/disc stood at 14 mm with Staphylococcus aureus [8], 7 mm in the series with Escherichia coli [9] and 5 mm with Candida albicans [10].

As for `N/C(=N/NC(CC(=O)c1ccc(-n2ccnc2)cc1)c1cccc([N+](=O)[O-])c1)c1ccccn1` (stereo not given), the minimum inhibitory concentration (MIC) against Mycobacterium gordonae was 8.8 µM (≈ 4.01 µg/mL); in series [4] it was 8.8 µM (≈ 4.01 µg/mL); against Mycobacterium kansasii, 8.8 µM (≈ 4.01 µg/mL); against Mycobacterium marinum, 35.1 µM (≈ 16 µg/mL); against Mycobacterium avium, 140 µM (≈ 63.8 µg/mL); in [11], 4.4 µM (≈ 2 µg/mL). The MIC in [12] was over 140 µM. In [5], half-maximal cytotoxicity (CC50 at 72 h) was put at 28.7 µM. The outcome in [7] was inactive. In addition, the figures for the zone of inhibition at 20 µg/disc in the series with Staphylococcus aureus [8], with Escherichia coli [9] and with Candida albicans [10] were 13 mm, 5 mm and 10 mm, respectively.
